Results taken from US5231182A, “Method of making certain aryl containing amides” (American Cyanamid Company, priority 1991, dated 1993).

How the values were obtained:
[1] = test system: Endotoxin induced shock and mortality; assay: Endotoxin induced shock and mortality in mice: high dose acute mouse endotoxemia; assay type: in vivo, Male Balb/c mice; settings: administered ip prior to a lethal ip injection of endotoxin
Excerpt: (§1) Endotoxin administration produces a shock-like state characterized by vascular permeability changes, hypotension, neutropenia, thrombocytopenia,multiple organ damage and death. The major mediators released after endotoxin injection are TNF (tumor necrosis factor), PAF (platelet activating factor) and […] (interleukin I). PAF administration mimics the signs and symptoms of endotoxin induced shock and death and endotoxin also induces the release of PAF. Therefore, the effects of endotoxin should be blocked with a PAF antagonist.
(§2) Male Balb/c mice (approximately 20 g) are obtained from Charles River Laboratories and used after a one-two week acclimation period. Animals are given (ip) test compound dissolved in saline or water (sonicated and heated) at different time intervals prior to and after the ip injection of endotoxin (usually 2 hours before LPS endotoxin, and 3-4 hours after). Sigma E. Coli endotoxin, 0111:B4, phenol extraction, catalog #L2630 is used for these studies.
This LD value is approximately 50 mg/kg i.p. The number of survivors in each group (control or treated with test compound) is recorded after 24, 48 or 72 hours and the treated groups (receiving test compound and endotoxin) are compared with the untreated, control group (receiving endotoxin only) or saline control (receiving saline and endotoxin).
Effect of Compounds Given I.P. in High Dose Acute Mouse Endotoxemia […]

PAF induced lethality = PAF induced lethality in mice; assay type: in vivo; settings: PAF 150 μg/kg IV
Method: PAF given I.V. to mice causes an immediate hypotensive shock leading to death in 1 hour or less. Compounds are given intraperitoneally or P.O. at various times before the PAF challenge. Animals alive after 2 hours are counted and the activity of test compounds expressed as % survival corrected for any control (saline treated) animals which survived the PAF challenge.
Effect of Compound Given I.V. or P.O. in Protecting
Mice from a Lethal Challenge of PAF^a
^a lethal challenge of PAF is 150 μg/kg IV.

PAF receptor = target: T1, PAF receptor (Oryctolagus cuniculus, UniProt G1TEI7); assay: Platelet Activating Factor antagonism in vitro: inhibition of PAF induced platelet aggregation in rabbit platelet rich plasma; assay type: cell-based, rabbit (New Zealand White); settings: for % INH (inhibition of PAF induced platelet aggregation): dose .00001 M
T1 construct: centrifuged at 800 rpm for 10-15 minutes at room temperature to recover the platelet rich plasma (PRP); endogenous in cells; host or cells: platelets in citrated platelet rich plasma from male New Zealand White rabbits (Oryctolagus cuniculus)
Method: Test compounds are evaluated as PAF receptor antagonists in vitro by measuring inhibition of PAF (platelet activating factor) induced platelet aggregation. Platelet aggregation is measured by a modification of the method described in […], et. al., J. Med. Chem., 27 1174, 1984. […] All syringes and pipets are plastic. The blood is gently mixed and immediately centrifuged at 800 rpm for 10-15 minutes at room temperature to recover the platelet rich plasma (PRP). Platelet poor plasma (PPP) is prepared by centrifuging PRP at 2800 rpm for 10 minutes at room temperature. Dilutions (1:3000) of PRP in Isoton® diluent are made and platelet counts are determined on a Coulter Thrombocounter which is standardized with platelet reference standards (Interscience Platelet Control, Portland, Oreg.). PRP platelet counts are adjusted to approximately 400,000-500,000 platelets/μl by the addition of PPP. L-PAF (Platelet Activating Factor) is obtained from Calbiochem. […] All solutions are made up in plastic tubes, stored on ice and protected from heat and light. Solutions are prepared fresh or frozen at -20° C. and used within 48 hours. Incubation mixtures consisted of 400 μl PRP, 50 μl of saline diluent or test compound and 50 μl of PAF agonist. More specifically, 400 μl of PRP is stabilized in a cuvette for 1-2 minutes at 37° C. in the aggregometer to achieve a stable baseline, then 50 μl of saline or test compound is added and incubated for 5 minutes before addition of the challenge concentration of PAF. A submaximal concentration is determined from the dose response curve for PAF for that experiment. In general, the challenge concentration is 5E-8 or IE-7M. Aggregation is monitored for 5 minutes. Samples containing test compound or diluent are run simultaneously for comparison. Test compounds are initially evaluated at a screening concentration of 1E-5M. […] The recording equipment consists of a dual channel Chronolog aggregometer connected to a dual channel 10MV full scale deflection Omniscribe chart recorder (Houston Instruments). The chart recorder is calibrated daily with the use of a suspension of Bio-Rad latex beads (S-X 12 400 mesh) which has a density slightly greater than rabbit PRP. […] These limits defined a full scale deflection. The aggregation traces are analyzed by a digitizing method (C. Kohler and B. Zoltan, J. Pharm. Methods, 12, 113, 1984) with x, y coordinate data stored in a computer file. A suitable program computes parameters of interest such as the magnitude of aggregation. | ^a dose of compound that gives the indicated % inhibition. | ^b the % inhibition of PAF induced platelet aggregation. | ^c the molar concentration of compound that will inhibit 50% of the | platelet aggretation induced by PAF given at the indicated PAF challenge | concentration.

[2] = test system: Endotoxin induced shock and mortality; assay: Endotoxin induced shock and mortality in mice: low dose, chronic mouse endotoxemia; assay type: in vivo, Male Balb/c mice
Excerpt: as §1, §2
For the chronic endotoxin shock model, a lower dose of endotoxin is administered (generally 15 to 20 mg/kg i.p). This dose gives an LD80 in two to four days following LPS administration. Test compounds are given 2 hours before LPS and 3-4 hours after on the first day, followed by 3 or 4 consecutive days of BID dosing. The number of survivors in each group is recorded each day for a period of 5 to 7 days.
Effect of Compounds Given i.p. in Low Dose, Chronic Mouse Endoxemia

T1 sequence (G1TEI7 1-342): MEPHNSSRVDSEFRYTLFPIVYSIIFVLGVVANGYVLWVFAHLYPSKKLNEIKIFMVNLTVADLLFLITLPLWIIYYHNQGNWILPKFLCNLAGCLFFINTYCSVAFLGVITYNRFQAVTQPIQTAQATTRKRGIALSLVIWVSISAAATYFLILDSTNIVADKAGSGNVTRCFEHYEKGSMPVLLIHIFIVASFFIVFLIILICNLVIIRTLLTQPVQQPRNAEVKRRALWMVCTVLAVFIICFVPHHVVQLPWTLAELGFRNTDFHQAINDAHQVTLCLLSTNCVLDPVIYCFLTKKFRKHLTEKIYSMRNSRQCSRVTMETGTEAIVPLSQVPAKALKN

SMILES | % Survival (PAF induced lethality; P.O. 5 mg/kg) [%] | % Survival (PAF induced lethality; P.O. 20 mg/kg) [%] | % Survival ([2]; day 0, dose 10 mg/kg i.p.) [%] | No Surv./tot. ([2]; day 0, dose 10 mg/kg i.p.) | % Survival ([2]; day 1, dose 10 mg/kg i.p.) [%] | No Surv./tot. ([2]; day 1, dose 10 mg/kg i.p.) | % Survival ([2]; day 2, dose 10 mg/kg i.p.) [%] | No Surv./tot. ([2]; day 2, dose 10 mg/kg i.p.) | % Survival ([2]; day 3, dose 10 mg/kg i.p.) [%] | No Surv./tot. ([2]; day 3, dose 10 mg/kg i.p.) | % Survival ([2]; day 4, dose 10 mg/kg i.p.) [%] | No Surv./tot. ([2]; day 4, dose 10 mg/kg i.p.) | % Survival ([2]; day 5, dose 10 mg/kg i.p.) [%] | No Surv./tot. ([2]; day 5, dose 10 mg/kg i.p.) | No Surv./tot. ([2]; day 6, dose 10 mg/kg i.p.) | also measured
CCCCCCCCCCCCCCOc1cccc(CC(=O)Nc2cccc(C[n+]3csc(C)c3)c2)c1.[Br-] [5-Methyl-3-[[3-[[[3-(tetradecyloxy)phenyl]acetyl]amino]phenyl]methyl]thiazolium bromide] | 40 | 59 | 100 | 30/30 | 100 | 30/30 | 63 | 19/30 | 46 | 14/30 | 43 | 13/30 | 43 | 12/30 | 12/30 | activity against lethal ip injection of endotoxin [1]: did show some activity; % INH (inhibition of PAF induced platelet aggregation) (PAF receptor; PAF chall conc 5E-9 M): 100.0%; PAF antagonism (in words) (PAF receptor; in vitro platelet aggregation studies): known to be a PAF antagonist; % Survival ([2]; day 7, dose 10 mg/kg i.p.): 43%; No Surv./tot. ([2]; day 7, dose 10 mg/kg i.p.): 12/30
CCCCCCCCCCCCCCOc1ccc(CC(=O)Nc2ccc(C[n+]3csc(C)c3)cc2)cc1.[Br-] [5-Methyl-3-[[4-[[[4-(tetradecyloxy)phenyl]acetyl]amino]phenyl]methyl]thiazolium bromide] | 32 | 32 | 100 | 30/30 | 100 | 30/30 | 80 | 24/30 | 80 | 24/30 | 80 | 24/30 | 80 | 24/30 | 24/30 | % INH (inhibition of PAF induced platelet aggregation) (PAF receptor; PAF chall conc 5.0000E-08 M): 100.0%; % Survival ([2]; day 0, dose 20 mg/kg i.p.): 100%; No Surv./tot. ([2]; day 0, dose 20 mg/kg i.p.): 30/30; % Survival ([2]; day 1, dose 20 mg/kg i.p.): 90%; No Surv./tot. ([2]; day 1, dose 20 mg/kg i.p.): 27/30; % Survival ([2]; day 2, dose 20 mg/kg i.p.): 60%; No Surv./tot. ([2]; day 2, dose 20 mg/kg i.p.): 18/30; % Survival ([2]; day 3, dose 20 mg/kg i.p.): 60%; No Surv./tot. ([2]; day 3, dose 20 mg/kg i.p.): 18/30; % Survival ([2]; day 4, dose 20 mg/kg i.p.): 60%; No Surv./tot. ([2]; day 4, dose 20 mg/kg i.p.): 18/30; % Survival ([2]; day 5, dose 20 mg/kg i.p.): 60%; No Surv./tot. ([2]; day 5, dose 20 mg/kg i.p.): 18/30; % Survival ([2]; day 6, dose 10 mg/kg i.p.): 80%; % Survival ([2]; day 6, dose 20 mg/kg i.p.): 56%; No Surv./tot. ([2]; day 6, dose 20 mg/kg i.p.): 17/30
